Assay results from patent US6733971B2, “Method for identifying an agent that affects a hedgehog signaling pathway” (priority 1998, dated 2004).

How the values were obtained:
[1] = test system: Ci; test: Ci induction in cl-8 cells with or without HH-N conditioned medium, Western blot; assay type: cell-based, Drosophila
Procedure: cl-8 cells were cultured as described in Van Leeuwen, F., et al. Nature, 368:342-344, 1994. Culture and transfection of S2 cells were performed as described in Porter, J. A. et al. Cell, 86: 21-34, 1996. The conditioned medium was made by culturing transfected S2 cells in cl-8 medium, and induced by adding CUSO4, to the final concentration of 0.5 Mm overnight. The conditioned medium was harvested the next day, centrifuged to remove S2 cells and the supernatant was used. To make lysate from cl-8 cells, cl-8 cells were washed, harvested in cold phosphate buffered saline (PBS), and then resuspended in NP-40 lysis buffer (150 Mm NaCl, 50 Mm Tris pH8, 1% NP-40, 1 Mm EDTA, 20 μg/ml aprotinin, 20 μg/ml leupeptin, 1 μg/ml pepstatin A, 2.5 μg/ml antipain, 100 μM PMSF, 50 mM NaF, 5 mM Na2P4O7). Cells were lysed at 4° C. for 10 minutes, then centrifuged at 13,000×g for 10 minutes. The supernatant was saved for Western blot analysis.
SDS-PAGE and protein transfer were carried out by standard methods. The primary antibodies used were: rat monoclonal anti-Ci 2Al 1:20 dilution; mouse monoclonal anti-Ptc 1:1000 dilution; mouse monoclonal anti-actin 1:2500. Secondary antibodies were from Jackson Immunologicals. The filters were developed using SuperSignal from Pierce.
Tautomycin (TAU) and okadaic acid (OA) were purchased from Calbiochem and dissolved in dimethyl sulfoxide (DMSO) to different concentrations. The phosphatase inhibitors were mixed with conditioned medium and the concentration of DMSO was adjusted to 0.2% for each sample. cl-8 cells were incubated with conditioned medium and phosphatase inhibitor mixture for 4 hours and lysed for analysis.

[2] = test system: HNF3β and Isl-1; test: SHH induction of HNF3β and Isl-1 in chick embryo neurotube explant; assay type: cell-based
Excerpt: Most of the components identified so far in the HH signaling pathway are conserved from Drosophila to vertebrates. The phosphatase activity found in cl-8 cells may also be conserved in vertebrates. Sonic HH (SHH), the vertebrate homolog of HH, induced the floor plate marker hepatocyte nuclear factor 3β (HNF3) and motor neuron marker islet-1 (Is1-1) in the developing neurotube. In chick embryo neurotube explant, exogenously provided SHH induced the expression of HNF3β and Isl-1.

[3] = test system: COUP-TFII mRNA; test: COUP-TFII mRNA in P19 cells, RNase protection assay; assay type: cell-based, mouse; conditions: 5 nM for 12 hours, with 1.0 nM Shh-N
Procedure: The P19 mouse embryo carcinoma cell line which was earlier shown to contain increased levels of COUP-TF transcripts after retinoid treatment was utilized. Jonk, L. J. C., et al., Mechan. of Dev. (1994) 47:81-97). Conditioned media obtained from COS-1 cells transfected with mouse Shh-N cDNA expression plasmid or purified E. coli expressed recombinant Shh-N was used.
Briefly, a total of 20 μg RNA was hybridized to a 450 (FIG. 5A) or 120 (FIG. 7B) nucleotide riboprobe that corresponds to the 5′ untranslated region (UTR) of the COUP-TFII gene along with a 670 (FIG. 5A) or 102 (FIG. 7B) nucleotide riboprobe of the murine Cyclophilin A coding region. The RPA II™ kit from Ambion was used to perform the RNase protection assay. The products were subjected to RNase digestion and analyzed on a 6% urea polyacrylamide gel.
P-19 cells were treated with phosphatase inhibitors to study the endogenous levels of COUP-TFII mRNA. […] Total RVA was isolated from these cells and 20 μg of RNA was used in a RNase protection assay as described above in Example 6. A region of the murine Cyclophilin A cDNA was used to generate riboprobe and was used as an internal control. P19 cells were co-treated with (FIG. 7C, lane 2, 4, 6, and 7) or without (FIG. 7C, lane 1, 3, and 5) 1.0 nM Shh-N and 5 nM OA (lane 3 and 4), 0.5 nM CyA (FIG. 7C, lane 5 & 6) or 5 nm NoA (FIG. 7C, lane 9). Cells were harvested after 24 hours of treatment and the nuclear extract was obtained for the binding reactions. Extracts were subjected to an EMSA as described earlier.

[4] = test system: ShhRE reporter gene; test: Shh-N mediated induction of ShhRE reporter gene activity; assay type: cell-based, mouse; conditions: 5 nM (data not shown)
Procedure: Methods described above in Example 6 were used in addition to the following protocols. P19 cells were transfected with a ShhRE-tkLUC reporter plasmid and three copies of a mutant element called mShhRE-tkLUC and treated with or without 1 nM Shh. Cell lysates were obtained after 30 hours and were later assayed for luciferase reporter activity. A graph (FIG. 5B) representing relative luciferase units per twenty μg (RLU/20 μg) was plotted using results obtained from three separate experiments (mean ±sd).

[5] = test system: SV40 enhancer; test: Constitutively active SV40 enhancer luciferase reporter (specificity control); assay type: cell-based; conditions: 5 nM (data not shown)
[6] = test system: Isl1 mRNA; test: Isl1 mRNA in P19 cells, RT-PCR; assay type: cell-based, mouse; conditions: 5 nM for 12 hours, 1 nM Shh-N for 24 hours
Procedure: Methods described in Example 6 were used in addition to the following protocols. P19 cells were treated with (FIG. 8A, lanes 2 and 4) or without (FIG. 8A, lanes 1 and 3) 1 nM Shh-N for 24 hours and 5 nM OA (FIG. 8A, lanes 3 and 4) for 12 hours and total RNA was obtained. An internal control containing a 763 bp insert into the SphI site of the Islet-1 cDNA was transcribed in vitro to prepare sense-oriented RNA. 1 ng of this RNA along with 100 ng of total RNA from appropriately treated P19 cells was reverse transcribed using Superscript II™ and one-tenth of each reaction was PCR amplified. Specific primers for Islet-1; Forward primer: 5′TCAAAC CTA CTT TGG GGT CTT A 3′SEQ ID NO:5. Reverse primer: 5′ATCGCCGGGGATGAGCTGGCGGCT 3′SEQ ID NO:6, and for COUP-TFII; Forward primer: 5′GATATGGCAATGGTAGTCAGCACGTGG 3′. SEQ ID NO:7, Reverse primer: 5′AGCTTCTCCACTTGCTCTTGG 3′SEQ ID NO:8, were used to PCR amplify (94° C. for 1 minute, 54° C. for 1 minute, and 72° C. for 1 minute. Twenty-two cycles were used for amplifying Islet-1 and the resulting products were separated on a 1% agarose gel in TAE buffer and visualized by ethidium bromide staining. A 1 kb DNA ladder (Stratagene) was used to estimate the size of the products. A 427 bp Isl1 fragment and a 838 bp COUP-TFII fragment was used to estimate changes in mRNA levels.

[7] = test system: PP2B; conditions: cited from earlier work
[8] = test system: PP2C; conditions: cited from earlier work

SMILES: C=C1[C@@H](O)[C@@H]2O[C@]3(CC[C@H](/C=C/[C@@H](C)[C@@H]4CC(C)=C[C@@]5(O[C@H](C[C@@](C)(O)C(=O)O)CC[C@H]5O)O4)O3)CC[C@H]2O[C@@H]1[C@@H](O)C[C@H](C)[C@H]1O[C@@]2(CCCCO2)CC[C@H]1C [OA, okadaic acid]
- Ci level ([1]; 1 nM, absence of HH signaling): significantly reduced
- Ci mobility form (phosphorylation) ([1]; 1 nM, absence of HH signaling): shifted Ci to the low mobility form
- Ci detection ([1]; 5 to 10 nM): completely undetectable
- Ci level and mobility ([1]; presence of HH): overcame the induction effect of HH
- induction of HNF3β and Isl-1 ([2]; 1 nM, 2.5 mg/ml of SHH): reduced the induction
- effect on induction of HNF3β and Isl-1 at higher SHH ([2]; 1 nM, 10 mg/ml of SHH): reversed
- induction of HNF3β and Isl-1 ([2]; 10 nM, 10 mg/ml of SHH): completely blocked the induction
- Shh-induced COUP-TFII mRNA [3]: complete inhibition
- Shh-N mediated induction of ShhRE reporter gene activity [4]: completely blocked
- SV40 enhancer driven luciferase reporter gene activity [5]: did not effect
- Shh-N induction of Is11 mRNA [6]: completely blocked
- effect on PP2B [7]: no effect
- effect on PP2C [8]: no effect
